In paper PMC7889231 (Journal of Enzyme Inhibition and Medicinal Chemistry, 2021):
Read-outs that look alike come from different tables or passages of the source.

How the values were obtained:
[1] = tested on: tubulin; assay: In vitro tubulin polymerisation inhibition (turbidimetric, fluorescent plate reader); format: biochemical; details: mean of three experiments
Experimental: The inhibition assay on microtubule polymerisation was evaluated turbidimetrically using a fluorescent plate reader.
The effect of the synthesised compounds on tubulin polymerisation was assessed turbidimetrically using a fluorescent plate reader method. The complete procedure was depected in Supplementary data.

[2] = tested on: HepG-2; assay: MTT anti-proliferative assay, HepG-2; format: cell-based, human
[3] = tested on: HCT-116; assay: MTT anti-proliferative assay, HCT-116; format: cell-based, human
[4] = tested on: MCF-7; assay: MTT anti-proliferative assay, MCF-7; format: cell-based, human; details: Homo sapiens
[5] = tested on: HepG-2, HCT-116, and MCF-7; assay: MTT anti-proliferative assay, ranges stated over several cell lines; format: cell-based; details: Homo sapiens
[6] = Homo sapiens, HepG2, MTT, mean ± SD of three experiments, read-out: IC50 HepG-2
[7] = Homo sapiens, HCT-116, MTT, mean ± SD of three experiments, read-out: IC50 HCT-116
[8] = MCF7, MTT, mean ± SD of three experiments, read-out: IC50 MCF-7
[9] = range over HepG-2, HCT-116 and MCF-7 and over the listed compounds, read-out: IC50 values ranging (all tested cell lines)
[10] = MTT, mean ± SD of three experiments, read-out: IC50 HepG-2
[11] = MTT, mean ± SD of three experiments, read-out: IC50 HCT-116
[12] = range over HCT-116 and MCF-7 and over the listed compounds, read-out: IC50 values ranging (HCT-116 and MCF-7)

IC50 [3, 7] | IC50 [4, 8] | IC50 [5, 9] | melting point | SMILES | IC50 [2, 6] | other results
28.9 ± 1.7 µM | 32.2 ± 2 µM | 22.4 to 45.5 µM | 135 to 136 °C | COc1ccc2nc(Cl)c(/C=C/C(=O)c3ccc(Cl)cc3)cc2c1 [Compound 5, (E)-3–(2-Chloro-6-methoxyquinolin-3-yl)-1–(4-chlorophenyl)prop-2-en-1-one] | 29.2 ± 1.9 µM | –
28.6 ± 1.7 µM | 37.3 ± 2.1 µM | 22.4 to 45.5 µM | 120 to 121 °C | COc1ccc2nc(Cl)c(/C=C/C(=O)c3ccc(N)cc3)cc2c1 [Compound 6, (E)-1–(4-Aminophenyl)-3–(2-chloro-6-methoxyquinolin-3-yl)prop-2-en-1-one] | 32.9 ± 2.1 µM | –
25.1 ± 1.2 µM | 16.9 ± 1.2 µM | – | 127 to 128 °C | COc1ccc2nc(Cl)c(/C=C/C(=O)c3cc(OC)c(OC)c(OC)c3)cc2c1 [Compound 7, (E)-3–(2-Chloro-6-methoxyquinolin-3-yl)-1–(3,4,5-trimethoxyphenyl)prop-2-en-1-one] | 23.6 ± 1.3 µM | –
22.4 ± 1.1 µM | 33.5 ± 2.4 µM | 22.4 to 45.5 µM | 118 to 119 °C | COc1ccc2nc(Cl)c(C3CC(c4ccc(Cl)cc4)=NN3)cc2c1 (stereo not shown) [Compound 8, 2-Chloro-3-[3–(4-chlorophenyl)-4,5-dihydro-1H-pyrazol-5-yl]-6-methoxyquinoline] | 30.9 ± 1.2 µM | –
16.6 µM | 20.5 ± 1.1 µM | – | 122 to 123 °C | COc1ccc2nc(Cl)c(C3CC(c4ccc(N)cc4)=NN3)cc2c1 (stereo not shown) [Compound 9, 4-[5–(2-Chloro-6-methoxyquinolin-3-yl)-4,5-dihydro-1H-pyrazol-3-yl]aniline] | 17.4 µM | IC50 [2, 10]: 16.6 ± 0.8 µM; IC50 [3, 11]: 17.4 ± 1 µM
15.4 µM | 25.1 ± 1.2 µM | – | 114 to 115 °C | COc1ccc2nc(Cl)c(C3CC(c4cc(OC)c(OC)c(OC)c4)=NN3)cc2c1 (stereo not shown) [Compound 10, 2-Chloro-6-methoxy-3-[3–(3,4,5-trimethoxyphenyl)-4,5-dihydro-1H-pyrazol-5-yl]quinoline] | 17.4 µM | IC50 [2, 10]: 15.4 ± 0.9 µM; IC50 [3, 11]: 17.4 ± 1.1 µM
19.7 ± 1.3 µM | 22.8 ± 1.4 µM | – | 145 to 146 °C | COc1ccc2nc(Cl)c(C3CC(c4ccc(Cl)cc4)=NO3)cc2c1 (stereo not shown) [Compound 11, 5–(2-Chloro-6-methoxyquinolin-3-yl)-3–(4-chlorophenyl)-4,5-dihydroisoxazole] | 20.5 ± 1 µM | –
40.5 ± 2.4 µM | 45.5 ± 2.8 µM | 22.4 to 45.5 µM | 127 to 128 °C | COc1ccc2nc(Cl)c(C3CC(c4ccc(N)cc4)=NO3)cc2c1 (stereo not shown) [Compound 12, 4-[5–(2-Chloro-6-methoxyquinolin-3-yl)-4,5-dihydroisoxazol-3-yl]aniline] | 35.4 ± 1.8 µM | –
12.9 µM | 17 ± 1.2 µM | – | 133 to 134 °C | COc1ccc2nc(Cl)c(C3CC(c4cc(OC)c(OC)c(OC)c4)=NO3)cc2c1 (stereo not shown) [Compound 13, 5–(2-Chloro-6-methoxyquinolin-3-yl)-3–(3,4,5-trimethoxyphenyl)-4,5-dihydroisoxazole] | 9.96 µM | IC50 [2, 10]: 12.9 ± 0.6 µM; IC50 [3, 11]: 9.96 ± 0.3 µM
7.62 ± 0.4 µM | 10 ± 0.4 µM | – | 136 to 137 °C | COc1ccc2nc(Cl)c(C3CC(c4ccc(Cl)cc4)=NN3C(N)=S)cc2c1 (stereo not shown) [Compound 14, 5–(2-Chloro-6-methoxyquinolin-3-yl)-3–(4-chlorophenyl)-4,5-dihydro-1H-pyrazole-1-carbothioamide] | 8.92 ± 0.4 µM | IC50 [1]: 0.0501 µM; IC50 [5, 12]: 6.48 to 10.3 µM
11.6 ± 0.9 µM | 13.6 ± 0.7 µM | 10.2 to 17.6 µM | 123 to 124 °C | COc1ccc2nc(Cl)c(C3CC(c4ccc(N)cc4)=NN3C(N)=S)cc2c1 (stereo not shown) [Compound 15, 3–(4-Aminophenyl)-5–(2-chloro-6-methoxyquinolin-3-yl)-4,5-dihydro-1H-pyrazole-1-carbothioamide] | 10.2 ± 0.4 µM | –
9.3 µM | 13.9 ± 0.3 µM | – | 121 to 122 °C | COc1ccc2nc(Cl)c(C3CC(c4cc(OC)c(OC)c(OC)c4)=NN3C(N)=S)cc2c1 (stereo not shown) [Compound 16, 5–(2-Chloro-6-methoxyquinolin-3-yl)-3–(3,4,5-trimethoxyphenyl)-4,5-dihydro-1H-pyrazole-1-carbothioamide] | 8.87 µM | IC50 [2, 10]: 9.3 ± 0.3 µM; IC50 [3, 11]: 8.87 ± 0.3 µM
11.4 ± 0.4 µM | 15.9 ± 0.6 µM | 10.2 to 17.6 µM | 135 to 136 °C | COc1ccc2nc(Cl)c(C3CC(c4ccc(Cl)cc4)=NN3C(N)=O)cc2c1 (stereo not shown) [Compound 17, 5–(2-Chloro-6-methoxyquinolin-3-yl)-3–(4-chlorophenyl)-4,5-dihydro-1H-pyrazole-1-carboxamide] | 12.7 ± 0.5 µM | –
10.4 ± 0.3 µM | 13.7 ± 0.8 µM | 10.2 to 17.6 µM | 130 to 131 °C | COc1ccc2nc(Cl)c(C3CC(c4ccc(N)cc4)=NN3C(N)=O)cc2c1 (stereo not shown) [Compound 18, 3–(4-Aminophenyl)-5–(2-chloro-6-methoxyquinolin-3-yl)-4,5-dihydro-1H-pyrazole-1-carboxamide] | 10.2 ± 0.4 µM | –
7.38 ± 0.4 µM | 9.04 ± 0.5 µM | – | 117 to 118 °C | COc1ccc2nc(Cl)c(C3CC(c4cc(OC)c(OC)c(OC)c4)=NN3C(N)=O)cc2c1 (stereo not shown) [Compound 19, 5–(2-Chloro-6-methoxyquinolin-3-yl)-3–(3,4,5-trimethoxyphenyl)-4,5-dihydro-1H-pyrazole-1-carboxamide] | 10.9 ± 0.5 µM | IC50 [5, 12]: 6.48 to 10.3 µM
1.81 ± 0.1 µM | 4.51 ± 0.2 µM | 1.78 to 9.19 µM | 145 to 146 °C | COc1ccc2nc(Cl)c(C3CC(c4ccc(Cl)cc4)=NN3c3ccccc3)cc2c1 (stereo not shown) [Compound 20, 2-Chloro-3-[3–(4-chlorophenyl)-1-phenyl-4,5-dihydro-1H-pyrazol-5-yl]-6-methoxyquinoline] | 2.6 ± 0.1 µM | times of colchicine cytotoxic activity, HepG-2 ([2]; ratio of IC50 to colchicine): 5.15 times; times of colchicine cytotoxic activity, HCT-116 ([3]; ratio of IC50 to colchicine): 2.84 times; IC50 [1]: 0.0368 µM
8.91 ± 0.3 µM | 9.19 ± 0.3 µM | 1.78 to 9.19 µM | 136 to 137 °C | COc1ccc2nc(Cl)c(C3CC(c4ccc(N)cc4)=NN3c3ccccc3)cc2c1 (stereo not shown) [Compound 21, 4-[5–(2-Chloro-6-methoxyquinolin-3-yl)-1-phenyl-4,5-dihydro-1H-pyrazol-3-yl]aniline] | 7.32 ± 0.2 µM | IC50 [1]: 0.00911 µM
3.04 ± 0.3 µM | 6.45 ± 0.2 µM | 1.78 to 9.19 µM | 136 to 137 °C | COc1ccc2nc(Cl)c(C3CC(c4cc(OC)c(OC)c(OC)c4)=NN3c3ccccc3)cc2c1 (stereo not shown) [Compound 22, 2-Chloro-6-methoxy-3-[1-phenyl-3–(3,4,5-trimethoxyphenyl)-4,5-dihydro-1H-pyrazol-5-yl]quinoline] | 4.76 ± 0.2 µM | IC50 [1]: 0.0191 µM
22.4 ± 0.5 µM | 24.3 ± 0.9 µM | – | 146 to 147 °C | COc1ccc2nc(Cl)c(-c3cc(-c4ccc(N)cc4)nc(=S)[nH]3)cc2c1 [Compound 27, 4–(4-Aminophenyl)-6–(2-chloro-6-methoxyquinolin-3-yl)pyrimidine-2(1H)-thione] | 16.3 ± 0.4 µM | –
13 ± 0.6 µM | 17.6 ± 0.8 µM | 10.2 to 17.6 µM | 195 to 196 °C | COc1ccc2nc(Cl)c(-c3cc(-c4ccc(Cl)cc4)nc(N)n3)cc2c1 [Compound 29, 4–(2-Chloro-6-methoxyquinolin-3-yl)-6–(4-chlorophenyl)pyrimidin-2-amine] | 16.5 ± 0.8 µM | –
32.7 ± 0.9 µM | 33.8 ± 1.5 µM | 22.4 to 45.5 µM | 175 to 176 °C | COc1ccc2nc(Cl)c(-c3cc(-c4ccc(N)cc4)nc(N)n3)cc2c1 [Compound 30, 4–(4-Aminophenyl)-6–(2-chloro-6-methoxyquinolin-3-yl)pyrimidin-2-amine] | 28.5 ± 1.3 µM | –
10.5 ± 0.4 µM | 15.2 ± 0.7 µM | – | 162 to 163 °C | COc1ccc2nc(Cl)c(-c3cc(-c4cc(OC)c(OC)c(OC)c4)nc(N)n3)cc2c1 [Compound 31, 4–(2-Chloro-6-methoxyquinolin-3-yl)-6–(3,4,5-trimethoxyphenyl)pyrimidin-2-amine] | 9.45 ± 0.5 µM | –
11.9 ± 0.4 µM | 15.4 ± 0.8 µM | 10.2 to 17.6 µM | 176 to 177 °C | COc1ccc2nc(Cl)c(-c3cc(-c4cc(OC)c(OC)c(OC)c4)nc(=O)[nH]3)cc2c1 [Compound 34, 6–(2-Chloro-6-methoxyquinolin-3-yl)-4–(3,4,5-trimethoxyphenyl)pyrimidin-2(1H)-one] | 15.3 ± 0.4 µM | –

SMILES | IC50 [3, 7] | IC50 [4, 8] | IC50 [5, 9] | melting point | IC50 [2, 6] | other results
COc1ccc2nc(Cl)c(C3CC(c4ccc(Cl)cc4)=NN3c3ccc([N+](=O)[O-])cc3[N+](=O)[O-])cc2c1 (stereo not shown) [Compound 23, 2-Chloro-3-[3–(4-chlorophenyl)-1–(2,4-dinitrophenyl)-4,5-dihydro-1H-pyrazol-5-yl]-6-methoxyquinoline] | – | – | – | 143 to 144 °C | – | IC50 ([2]; Homo sapiens, HepG2, read-out: IC50 HepG-2): 2.64 ± 0.1 µM; IC50 ([3]; Homo sapiens, HCT-116, read-out: IC50 HCT-116): 1.78 ± 0.1 µM; IC50 ([4]; MCF7, read-out: IC50 MCF-7): 4.48 ± 0.1 µM; IC50 ([5]; read-out: IC50 values ranging (all tested cell lines)): 1.78 to 9.19 µM
